Key:
[1] = test system: cabbage moth (Plutella xylostella); assay: Insecticidal test against cabbage moth (Test Example 1); assay type: in vivo; details: foliar, 144 h, read-out: insecticidal rate (rate of dead insects)
[2] = test system: common cutworm (Spodoptera litura); assay: Insecticidal test against common cutworm (Test Example 2); assay type: in vivo; details: in Brassica oleracea, foliar, 144 h, read-out: insecticidal rate (rate of dead insects)
Experimental: A 10% emulsifiable concentrate (depending on the compounds, 10% wettable powder was applied for the test) of the compound of the present invention was diluted with water […] To the chemical solution was dipped leaves of cabbage for about 10 seconds, and after air-drying, they were placed in a laboratory dish, then 5-common cutworm (Spodoptera litura) in the stage of second instar larva per the dish were released therein, and the dish was covered with a lid and contained at a thermostat chamber at 25° C. […] Incidentally, the test was carried out with two districts.

SMILES	pest or weed control at 500 ppm [1] [%]	pest or weed control at 10 ppm [1] [%]	pest or weed control at 10 ppm [2] [%]	pest or weed control at 100 ppm [1] [%]	pest or weed control at 100 ppm [2] [%]
COC(=O)NC(=O)c1c(C)cc(C2=NOC(c3cc(Cl)cc(Cl)c3)(C(F)(F)F)C2)cc1I (stereo not drawn) [2-019, Methyl N-[4-[5-(3,5-dichlorophenyl)-5-trifluoromethyl-4,5-dihydroisoxazole-3-yl]-6-iodo-2-methylbenzoyl]carbamate]	≥ 80	–	–	–	–
COC(=O)NC(=O)c1ccc(C2=NOC(c3cc(Cl)c(Cl)c(Cl)c3)(C(F)(F)F)C2)cc1C (stereo not drawn) [2-026, Methyl N-[2-methyl-4-[5-(3,4,5-trichlorophenyl)-5-trifluoromethyl-4,5-dihydroisoxazole-3-yl]benzoyl]carbamate]	–	≥ 80	≥ 80	–	–
COC(=O)N(COCC(F)(F)F)C(=O)c1ccc(C2=NOC(c3cc(Cl)cc(Cl)c3)(C(F)(F)F)C2)cc1C (stereo not drawn) [3-032, Methyl N-[4-[5-(3,5-dichlorophenyl)-5-trifluoromethyl-4,5-dihydro-isoxazole-3-yl]-2-methylbenzoyl]-N-(2,2,2-trifluoroethoxymethyl)carbamate]	–	≥ 80	≥ 80	–	–
COC(=O)N(C(=O)c1ccc(C2=NOC(c3cc(Cl)cc(Cl)c3)(C(F)(F)F)C2)cc1C)C1CCCO1 (stereo not drawn) [3-077, Methyl N-[4-[5-(3,5-dichlorophenyl)-5-trifluoromethyl-4,5-dihydro-isoxazole-3-yl]-2-methylbenzoyl]-N-(2-tetrahydrofuranyl)carbamate]	–	≥ 80	≥ 80	–	–
Cc1cc(C2=NOC(c3cc(Cl)cc(Cl)c3)(C(F)(F)F)C2)ccc1C(=O)NC(N)=O (stereo not drawn) [4-002, N-Carbamoyl-4-[5-(3,5-dichlorophenyl)-5-trifluoromethyl-4,5-dihydro-isoxazole-3-yl]-2-methyl benzoic acid amide]	–	–	–	≥ 80	≥ 80
Cc1cc(C2=NOC(c3cc(Cl)cc(Cl)c3)(C(F)(F)F)C2)ccc1C(=O)N(C)C(N)=O (stereo not drawn) [4-003, N-Carbamoyl-4-[5-(3,5-dichlorophenyl)-5-trifluoromethyl-4,5-dihydroisoxazole-3-yl]-2-methyl-N-methyl benzoic acid amide]	–	–	–	≥ 80	≥ 80
Cc1cc(C2=NOC(c3cc(Cl)cc(Cl)c3)(C(F)(F)F)C2)ccc1C(=O)N(C)C(=O)NC(=O)CCl (stereo not drawn) [4-006, N-Chloroacetyl-N′-[4-[5-(3,5-dichlorophenyl)-5-trifluoromethyl-4,5-dihydroisoxazole-3-yl]-2-methylbenzoyl]-N′-methyl urea]	–	–	–	≥ 80	≥ 80
CCN(C(=O)NC(=O)c1ccc(C2=NOC(c3cc(Cl)cc(Cl)c3)(C(F)(F)F)C2)cc1C)C(=O)OC (stereo not drawn) [4-011, N-[4-[5-(3,5-dichlorophenyl)-5-trifluoromethyl-4,5-dihydro-isoxazole-3-yl]-2-methylbenzoyl]-N′-ethyl-N′-methoxycarbonyl urea]	–	≥ 80	≥ 80	–	–
COC(=O)N(C(=O)c1ccc(C2=NOC(c3cc(Cl)cc(Cl)c3)(C(F)(F)F)C2)cc1C)c1ncccn1 (stereo not drawn) [5-014, Methyl N-[4-[5-(3,5-dichlorophenyl)-5-trifluoromethyl-4,5-dihydroisoxazole-3-yl]-2-methylbenzoyl]-N-(2-pyrimidinyl)carbamate]	–	–	–	≥ 80	≥ 80
CC(=O)N(C(=O)c1ccc(C2=NOC(c3cc(Cl)cc(Cl)c3)(C(F)(F)F)C2)cc1C)n1cccn1 (stereo not drawn) [5-044, N-Acetyl-4-[5-(3,5-dichlorophenyl)-5-trifluoromethyl-4,5-dihydroisoxazole-3-yl]-2-methyl-N-(1-pyrazolyl)benzoic acid amide]	–	–	–	≥ 80	≥ 80
COC(=O)N(C(=O)c1ccc(C2=NOC(c3cc(Cl)cc(Cl)c3)(C(F)(F)F)C2)cc1C)c1ccc(Cl)cn1 (stereo not drawn) [5-060, Methyl N-(5-chloro-2-pyridyl)-N-[4-[5-(3,5-dichlorophenyl)-5-trifluoromethyl-4,5-dihydro-isoxazole-3-yl]-2-methylbenzoyl]carbamate]	–	–	–	≥ 80	≥ 80
COC(=O)N(C(=O)c1ccc(C2=NOC(c3cc(Cl)cc(Cl)c3)(C(F)(F)F)C2)cc1C)c1ccc(C#N)cn1 (stereo not drawn) [5-071, Methyl N-(5-cyano-2-pyridyl)-N-[4-[5-(3,5-dichlorophenyl)-5-trifluoromethyl-4,5-dihydro-isoxazole-3-yl]-2-methylbenzoyl]carbamate]	–	≥ 80	≥ 80	–	–
CC(=O)N(C(=O)c1ccc(C2=NOC(c3cc(Cl)cc(Cl)c3)(C(F)(F)F)C2)cc1C)c1cccc(Cl)n1 (stereo not drawn) [5-073, N-Acetyl-N-(6-chloro-2-pyridyl)-4-[5-(3,5-dichlorophenyl)-5-trifluoromethyl-4,5-dihydroisoxazole-3-yl]-2-methyl benzoic acid amide]	–	≥ 80	≥ 80	–	–
Cc1cc(C2=NOC(c3cc(Cl)cc(Cl)c3)(C(F)(F)F)C2)ccc1C(=O)N(C)c1cccc(Br)n1 (stereo not drawn) [5-075, N-(6-Bromo-2-pyridyl)-4-[5-(3,5-dichlorophenyl)-5-trifluoromethyl-4,5-dihydro-isoxazole-3-yl]-N-methyl-2-methyl benzoic acid amide]	–	≥ 80	≥ 80	–	–
Cc1cc(C2=NOC(c3cc(Cl)cc(Cl)c3)(C(F)(F)F)C2)ccc1C(=O)N(C)c1cncnc1 (stereo not drawn) [5-164, 4-[5-(3,5-Dichlorophenyl)-5-trifluoromethyl-4,5-dihydroisoxazole-3-yl]-2-methyl-N-methyl-N-(5-pyrimidinyl)benzoic acid amide]	–	≥ 80	≥ 80	–	–
COC(=O)N(C(=O)c1ccc(C2=NOC(c3cc(Cl)cc(Cl)c3)(C(F)(F)F)C2)cc1C)c1cncnc1 (stereo not drawn) [5-169, Methyl N-[4-[5-(3,5-dichlorophenyl)-5-trifluoromethyl-4,5-dihydro-isoxazole-3-yl]-2-methylbenzoyl]-N-(5-pyrimidinyl)carbamate]	–	≥ 80	≥ 80	–	–
Cc1cc(C2=NOC(c3cc(Cl)cc(Cl)c3)(C(F)(F)F)C2)ccc1C(=O)N(C)c1ncc(C#N)cn1 (stereo not drawn) [5-171, N-(5-Cyano-2-pyrimidinyl)-4-[5-(3,5-dichlorophenyl)-5-trifluoromethyl-4,5-dihydroisoxazole-3-yl]-N-methyl-2-methyl benzoic acid amide]	–	≥ 80	≥ 80	–	–
Cc1cc(C2=NOC(c3cc(Cl)cc(Cl)c3)(C(F)(F)F)C2)ccc1C(=O)N(C)C1(Cl)N=CC=CN1 (stereo not drawn) [5-172, N-(2-Chloro-2-pyrimidinyl)-4-[5-(3,5-dichlorophenyl)-5-trifluoromethyl-4,5-dihydro-isoxazole-3-yl]-N-methyl-2-methyl benzoic acid amide]	≥ 80	–	≥ 80	–	–
CCc1cc(C2=NOC(c3cc(Cl)cc(Cl)c3)(C(F)(F)F)C2)ccc1C(=O)N/C=N\OC (stereo not drawn) [6-020, (Z)-4-[5-(3,5-Dichlorophenyl)-5-trifluoromethyl-4,5-dihydroisoxazole-3-yl]-2-ethyl-N-(methoxyiminomethyl)benzoic acid amide]	–	≥ 80	≥ 80	–	–
CCO/N=C\NC(=O)c1ccc(C2=NOC(c3cc(Cl)cc(Cl)c3)(C(F)(F)F)C2)cc1OC(F)F (stereo not drawn) [6-023, (Z)-4-[5-(3,5-Dichlorophenyl)-5-trifluoromethyl-4,5-dihydroisoxazole-3-yl]-2-difluoromethoxy-N-(ethoxyiminomethyl)benzoic acid amide]	–	–	–	≥ 80	≥ 80
COCc1cc(C2=NOC(c3cc(Cl)cc(Cl)c3)(C(F)(F)F)C2)ccc1C(=O)NC(=N)OC (stereo not drawn) [6-031, 4-[5-(3,5-Dichlorophenyl)-5-trifluoromethyl-4,5-dihydroisoxazole-3-yl]-N-(methoxy-iminomethyl)-2-methoxymethyl benzoic acid amide]	–	≥ 80	≥ 80	–	–
CON=CNC(=O)c1ccc(C2=NOC(c3cc(Cl)cc(Cl)c3)(C(F)(F)F)C2)cc1CN(C)C (stereo not drawn) [6-032, 4-[5-(3,5-Dichlorophenyl)-5-trifluoromethyl-4,5-dihydroisoxazole-3-yl]-2-(dimethylaminomethyl)-N-(methoxyiminomethyl)benzoic acid amide]	≥ 80	–	–	–	–
CON=CNC(=O)c1ccc(C2=NOC(c3cc(Cl)cc(Cl)c3)(C(F)(F)F)C2)cc1NC(C)=O (stereo not drawn) [6-033, 2-Acetylamino-4-[5-(3,5-dichlorophenyl)-5-trifluoromethyl-4,5-dihydroisoxazole-3-yl]-N-(methoxyiminomethyl)benzoic acid amide]	–	≥ 80	≥ 80	–	–
CON=CNC(=O)c1ccc(C2=NOC(c3cc(Cl)cc(C(F)(F)F)c3)(C(F)(F)F)C2)cc1C (stereo not drawn) [6-037, 4-[5-(3-Chloro-5-trifluoromethylphenyl)-5-trifluoromethyl-4,5-dihydroisoxazole-3-yl]-N-(methoxyiminomethyl)-2-methyl benzoic acid amide]	–	≥ 80	≥ 80	–	–
CON=CN(C)C(=O)c1ccc(C2=NOC(c3cc(Cl)cc(Cl)c3)(C(F)(F)F)C2)cc1C (stereo not drawn) [7-002, 4-[5-(3,5-Dichlorophenyl)-5-trifluoromethyl-4,5-dihydroisoxazole-3-yl]-N-(methoxyiminomethyl)-N-methyl-2-methylbenzoic acid amide]	–	≥ 80	≥ 80	–	–

Source: US8673951B2, “Isoxazoline-substituted benzamide compound and pesticide” (priority 2005, dated 2014)
